Source: patent US20230365533A1, “BICYCLOHEPTANE PYRROLIDINE OREXIN RECEPTOR AGONISTS” (MERCK SHARP & DOHME CORP., priority 2021, published 2023)

Target: T1, human OX2R (Homo sapiens, UniProt O43614)
T1 construct: expressed in transfected cells; host or cells: CHO (Chinese hamster ovary) cells, grown under G418 selection
T1 sequence (O43614 1-444): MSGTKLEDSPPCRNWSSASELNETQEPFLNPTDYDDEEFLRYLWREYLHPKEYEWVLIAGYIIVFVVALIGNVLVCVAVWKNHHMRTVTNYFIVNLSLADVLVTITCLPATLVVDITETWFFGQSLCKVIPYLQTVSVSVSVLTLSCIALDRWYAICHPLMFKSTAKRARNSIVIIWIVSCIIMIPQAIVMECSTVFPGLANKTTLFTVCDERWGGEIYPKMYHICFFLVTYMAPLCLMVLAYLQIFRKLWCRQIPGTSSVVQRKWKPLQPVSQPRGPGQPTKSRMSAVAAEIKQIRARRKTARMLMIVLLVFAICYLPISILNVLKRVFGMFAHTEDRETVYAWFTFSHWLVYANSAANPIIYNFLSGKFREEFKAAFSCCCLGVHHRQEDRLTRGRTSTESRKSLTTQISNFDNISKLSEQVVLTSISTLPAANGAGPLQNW
Assay: IPOne (IP-1) orexin receptor agonist assay in CHO cells expressing human OX2R
Type: cell-based
Settings: IPOne assay, CHO cells expressing human OX2R, 2 hours incubation; read-out: hoX2R_IP IC50
Summary of the method: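 CHO cells with human OX2R treated 2 h at 37 °C with 10-point ½-log compound dilutions in stimulation buffer; IP-1 accumulation read by HTRF (665/620 nm) after 60 min detection. EC50 from four-parameter fit; % effect versus a 1 uM reference agonist.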

SMILES | IC50
C[C@@H]1C[C@H](NS(C)(=O)=O)[C@H](CO[C@H]2CC[C@@]3(c4ncc(F)cn4)C[C@H]3C2)N1C(=O)OCC1CC1(F)F (stereo partly drawn) [Example 59, (2,2-difluorocyclopropyl)methyl (2R,3S,5R)-2-((((1S,3S,6R)-6-(5-fluoropyrimidin-2-yl)bicyclo[4.1.0]heptan-3-yl)oxy)methyl)-5-methyl-3-(methylsulfonamido)pyrrolidine-1-carboxylate] | 0.71 nM
CCC(F)(F)COC(=O)N1[C@H](C)C[C@H](NS(C)(=O)=O)[C@@H]1CO[C@H]1CC[C@@]2(c3ncc(F)cn3)C[C@H]2C1 [Example 60, 2,2-difluorobutyl (2R,3S,5R)-2-((((1S,3S,6R)-6-(5-fluoropyrimidin-2-yl)bicyclo[4.1.0]heptan-3-yl)oxy)methyl)-5-methyl-3-(methylsulfonamido)pyrrolidine-1-carboxylate] | 1.4 nM
C[C@@H]1C[C@H](NS(C)(=O)=O)[C@H](CO[C@H]2CC[C@@]3(c4ncc(F)cn4)C[C@H]3C2)N1C(=O)OCC1(F)CC1 [Example 61, (1-fluorocyclopropyl)methyl (2R,3S,5R)-2-((((1S,3S,6R)-6-(5-fluoropyrimidin-2-yl)bicyclo[4.1.0]heptan-3-yl)oxy)methyl)-5-methyl-3-(methylsulfonamido)pyrrolidine-1-carboxylate] | 2.3 nM
C[C@@H]1C[C@H](NS(C)(=O)=O)[C@H](CO[C@H]2CC[C@@]3(c4ncc(F)cn4)C[C@H]3C2)N1C(=O)OCCF [Example 62, 2-Fluoroethyl (2R,3S,5R)-2-((((1S,3S,6R)-6-(5-fluoropyrimidin-2-yl)bicyclo[4.1.0]heptan-3-yl)oxy)methyl)-5-methyl-3-(methylsulfonamido)pyrrolidine-1-carboxylate] | 1.7 nM
CC(OC(=O)N1[C@H](C)C[C@H](NS(C)(=O)=O)[C@@H]1CO[C@H]1CC[C@@]2(c3ncc(F)cn3)C[C@H]2C1)C(F)F (stereo partly drawn) [Example 63, 1,1-Difluoropropan-2-yl (2R,3S,5R)-2-((((1S,3S,6R)-6-(5-fluoropyrimidin-2-yl)bicyclo[4.1.0]heptan-3-yl)oxy)methyl)-5-methyl-3-(methylsulfonamido)pyrrolidine-1-carboxylate] | 0.77 nM
C[C@@H]1C[C@H](NS(C)(=O)=O)[C@H](CO[C@H]2CC[C@@]3(c4ncc(F)cn4)C[C@H]3C2)N1C(=O)OCC(C)(F)F [Example 64, 2,2-difluoropropyl (2R,3S,5R)-2-((((1S,3S,6R)-6-(5-fluoropyrimidin-2-yl)bicyclo[4.1.0]heptan-3-yl)oxy)methyl)-5-methyl-3-(methylsulfonamido)pyrrolidine-1-carboxylate] | 2.1 nM
C[C@@H]1C[C@H](NS(C)(=O)=O)[C@H](CO[C@H]2CC[C@@]3(c4ncc(F)cn4)C[C@H]3C2)N1C(=O)OCC(F)(F)F [Example 65, 2,2,2-trifluoroethyl (2R,3S,5R)-2-((((1S,3S,6R)-6-(5-fluoropyrimidin-2-yl)bicyclo[4.1.0]heptan-3-yl)oxy)methyl)-5-methyl-3-(methylsulfonamido)pyrrolidine-1-carboxylate] | 1.6 nM
C[C@@H]1C[C@H](NS(C)(=O)=O)[C@H](CO[C@H]2CC[C@@]3(c4ncc(F)cn4)C[C@H]3C2)N1C(=O)OCC(F)F [Example 66, 2,2-difluoroethyl (2R,3S,5R)-2-((((1S,3S,6R)-6-(5-fluoropyrimidin-2-yl)bicyclo[4.1.0]heptan-3-yl)oxy)methyl)-5-methyl-3-(methylsulfonamido)pyrrolidine-1-carboxylate] | 0.6 nM
COC(=O)N1[C@H](C)C[C@H](NS(C)(=O)=O)[C@@H]1COC1CCC2(c3nc4c(F)ccc(F)c4s3)CC2C1 (stereo partly drawn) [Example 71, methyl (2R,3S,5R)-2-(((6-(4,7-difluorobenzo[d]thiazol-2-yl)bicyclo[4.1.0]heptan-3-yl)oxy)methyl)-5-methyl-3-(methylsulfonamido)pyrrolidine-1-carboxylate] | 832 nM
COC(=O)N1[C@H](C)C[C@H](NS(C)(=O)=O)[C@@H]1COC1CCC2(c3ncc(Cl)c(C(F)(F)F)n3)CC2C1 (stereo partly drawn) [Example 72, methyl (2R,3S,5R)-2-(((6-(5-chloro-4-(trifluoromethyl)pyrimidin-2-yl)bicyclo[4.1.0]heptan-3-yl)oxy)methyl)-5-methyl-3-(methylsulfonamido)pyrrolidine-1-carboxylate] | 187 nM
COC(=O)N1[C@H](C)C[C@H](NS(C)(=O)=O)[C@@H]1COC1CCC2(c3ncc(F)c(C(F)F)n3)CC2C1 (stereo partly drawn) [Example 73, methyl (2R,3S,5R)-2-(((6-(4-(difluoromethyl)-5-fluoropyrimidin-2-yl)bicyclo[4.1.0]heptan-3-yl)oxy)methyl)-5-methyl-3-(methylsulfonamido)pyrrolidine-1-carboxylate] | 220 nM
COC(=O)N1[C@H](C)C[C@H](NS(C)(=O)=O)[C@@H]1COC1CCC2(c3ncc(F)c(C4CC4)n3)CC2C1 (stereo partly drawn) [Example 74, methyl (2R,3S,5R)-2-(((6-(4-cyclopropyl-5-fluoropyrimidin-2-yl)bicyclo[4.1.0]heptan-3-yl)oxy)methyl)-5-methyl-3-(methylsulfonamido)pyrrolidine-1-carboxylate] | 299 nM
COC(=O)N1[C@H](C)C[C@H](NS(C)(=O)=O)[C@@H]1COC1CCC2(c3ncc(OC(F)F)c(C)n3)CC2C1 (stereo partly drawn) [Example 75, methyl (2R,3S,5R)-2-(((6-(5-(difluoromethoxy)-4-methylpyrimidin-2-yl)bicyclo[4.1.0]heptan-3-yl)oxy)methyl)-5-methyl-3-(methylsulfonamido)pyrrolidine-1-carboxylate] | 257 nM
COC(=O)N1[C@H](C)C[C@H](NS(C)(=O)=O)[C@@H]1COC1CCC2(c3ncc(F)c(OC)n3)CC2C1 (stereo partly drawn) [Example 76, methyl (2R,3S,5R)-2-(((6-(5-fluoro-4-methoxypyrimidin-2-yl)bicyclo[4.1.0]heptan-3-yl)oxy)methyl)-5-methyl-3-(methylsulfonamido)pyrrolidine-1-carboxylate] | 51.2 nM
COC(=O)N1[C@H](C)C[C@H](NS(C)(=O)=O)[C@@H]1COC1CCC2(c3ncc(F)c(C)n3)CC2C1 (stereo partly drawn) [Example 77, methyl (2R,3S,5R)-2-(((6-(5-fluoro-4-methylpyrimidin-2-yl)bicyclo[4.1.0]heptan-3-yl)oxy)methyl)-5-methyl-3-(methylsulfonamido)pyrrolidine-1-carboxylate] | 736 nM
CC(C)OC(=O)N1[C@H](C)C[C@H](NS(=O)(=O)C(F)F)[C@@H]1COC1CCC2(c3ncc(Cl)cn3)CC2C1 (stereo partly drawn) [Example 82, isopropyl (2R,3S,5R)-2-(((6-(5-chloropyrimidin-2-yl)bicyclo[4.1.0]heptan-3-yl)oxy)methyl)-3-((difluoromethyl)sulfonamido)-5-methylpyrrolidine-1-carboxylate] | 10.8 nM
COC(=O)N1[C@H](C)C[C@H](NS(=O)(=O)CF)[C@@H]1COC1CCC2(c3ncc(F)c(OC)n3)CC2C1 (stereo partly drawn) [Example 85, methyl (2R,3S,5R)-2-(((6-(5-fluoro-4-methoxypyrimidin-2-yl)bicyclo[4.1.0]heptan-3-yl)oxy)methyl)-3-((fluoromethyl)sulfonamido)-5-methylpyrrolidine-1-carboxylate] | 25.2 nM
COC(=O)N1[C@H](C)C[C@H](NS(=O)(=O)CF)[C@@H]1COC1CCC2(c3ncc(Cl)c(OC)n3)CC2C1 (stereo partly drawn) [Example 86, methyl (2R,3S,5R)-2-(((6-(5-chloro-4-methoxypyrimidin-2-yl)bicyclo[4.1.0]heptan-3-yl)oxy)methyl)-3-((fluoromethyl)sulfonamido)-5-methylpyrrolidine-1-carboxylate] | 9.9 nM
COC(=O)N1[C@H](C)C[C@H](NS(=O)(=O)CF)[C@@H]1COC1CCC2(c3ncc(Br)cn3)CC2C1 (stereo partly drawn) [Example 89, methyl (2R,3S,5R)-2-(((6-(5-bromopyrimidin-2-yl)bicyclo[4.1.0]heptan-3-yl)oxy)methyl)-3-((fluoromethyl)sulfonamido)-5-methylpyrrolidine-1-carboxylate] | 1 nM
COC(=O)N1[C@H](C)C[C@H](NS(=O)(=O)CF)[C@@H]1COC1CCC2(c3ncc(Cl)cn3)CC2C1 (stereo partly drawn) [Example 94, methyl (2R,3S,5R)-2-(((6-(5-chloropyrimidin-2-yl)bicyclo[4.1.0]heptan-3-yl)oxy)methyl)-3-((fluoromethyl)sulfonamido)-5-methylpyrrolidine-1-carboxylate] | 1.7 nM
CC(C)OC(=O)N1[C@H](C)C[C@H](NS(=O)(=O)CF)[C@@H]1COC1CCC2(c3ncc(Cl)cn3)CC2C1 (stereo partly drawn) [Example 107, isopropyl (2R,3S,5R)-2-(((6-(5-chloropyrimidin-2-yl)bicyclo[4.1.0]heptan-3-yl)oxy)methyl)-3-((fluoromethyl)sulfonamido)-5-methylpyrrolidine-1-carboxylate] | 4.5 nM
CC(C)OC(=O)N1[C@H](C)C[C@H](NS(=O)(=O)CF)[C@@H]1COC1CCC2(c3ncc(Br)cn3)CC2C1 (stereo partly drawn) [Example 108, isopropyl (2R,3S,5R)-2-(((6-(5-bromopyrimidin-2-yl)bicyclo[4.1.0]heptan-3-yl)oxy)methyl)-3-((fluoromethyl)sulfonamido)-5-methylpyrrolidine-1-carboxylate] | 7.4 nM
